Measured values from ChEMBL document CHEMBL4266045, “Understanding Molecular Drivers of Melanin Binding To Support Rational Design of Small Molecule Ophthalmic Drugs” (J Med Chem, 2018).

What was measured:
Sepia officinalis = assay: Binding affinity to Sepia officinalis melanin assessed as fraction unbound at 2 uM after 2 hrs by high-throughput screening assay
[1] = Lipophilicity, log D of compound; conditions: octanol/water

Fu (Sepia officinalis) [%]	logD [1]	Structure (SMILES)
48	–	Nc1nc2ccc(OC(F)(F)F)cc2s1
34	3.77	Cc1ccccc1Nc1ncnc2c1oc1ccccc12
0.1	2.98	c1ccc2c(c1)oc1c(Nc3ccncc3)ncnc12
0.2	2.04	CN(C)c1nc2ccc(Cl)cc2s1
0.8	1.91	CCCCN1CCC(CCC(=O)c2cc(Cl)c(N)cc2OC)CC1
34	0.01	COc1cc(N)c(Cl)cc1C(=O)CCC1CCNCC1
